# Entries after “also recorded” stand apart in the source; their conditions may differ. Like-named read-outs stand apart in the source and are kept apart here.
# Columns and labels:
# [1] = tested on: HSV ICP8; experiment: ICP8 immunofluorescence of explanted latently infected trigeminal ganglia; assay type: cell-based, Balb/c mice; conditions: for ganglia with ICP8 (+) neurons: explant 48 hrs in the presence of drug
# Description: (§1) Latently infected mice and trigeminal ganglia: Balb/c mice were infected with 5×10^5 PFU HSV-1 (strain 17) per eye after corneal scarification. Latently infected mice were sacrificed 30 days post clearance of the primary infection and trigeminal ganglia were rapidly explanted into culture in the presence or absence of TCP or control (DMSO or acyclovir). Post explant incubation as indicated, the ganglia were homogenized and briefly sonicated. The reactivated viral yield of each ganglia was determined by titering the clarified supernatant on Vero cells.
# Immunofluorescence statistical analysis: Trigeminal ganglia (16 DMSO/Control, 15 acyclovir, and 15 TCP) were fixed at 48 hours post explants. Serial sections representing the entire ganglia were stained and scored by confocal microscopy.
# Therefore, latently infected ganglia were explanted in the presence of DMSO (control vector), acyclovir (to prevent viral DNA replication and spread), or TCP for 48 hrs. Ganglia were fixed and sections were probed with antibodies to HSV ICP8, the viral-encoded single stranded binding protein.
# [2] = tested on: HSV IE mRNA (ICP27, ICP4); experiment: Nested RT-PCR of viral IE mRNAs in explanted latently infected ganglia; assay type: cell-based, Balb/c mice; conditions: paired ganglia explanted 12 hrs; 100 μM acyclovir or 2 mM TCP
# Description: For the detection of viral IE and cellular mRNAs post explant, 8 ganglia from HSV latently infected or mock infected Balb/c mice were explanted in the presence of DMSO, 100 μM acyclovir, or 2 mM TCP for the indicated times. cDNAs were prepared from total RNA and amplified by qPCR (cellular Sp1 and TBP controls) or nested PCR (viral IE). Primer sets for the nested RT-PCR were as follows:
# cDNA samples were normalized to one another according to the level of cellular control Sp1 mRNA. To insure linearity and sensitivity of nested PCR reactions, samples were amplified in parallel with dilutions of cDNA prepared from 3T3 cells infected with HSV at 6.4×10^−5 pfu/cell for 4 hrs. PCR products were resolved in agarose gels and quantitated using Kodak Image Station 4000MM Digital Imaging System.
# [3] = Cellular protein controls and cellular toxicity in MAOI-treated infected cells; assay type: cell-based
# Description: (§2) For treatment with MAOIs, cells were pretreated with the indicated concentration of drug for 4-5 hrs prior to infection and maintained throughout infection. Pargyline (p-8013) and Tranylcypromine (p-8511) were obtained from Sigma (St. Louis, Mo.).
# [4] = tested on: herpes simplex virus (HSV); experiment: HSV infection of cells treated with MAOIs; qRT-PCR of HSV IE genes and IE proteins; assay type: cell-based, HSV-1 strain 17; conditions: HSV-infected cells, selected concentrations of drug; relative to DMSO treated cells
# [5] = tested on: viral IE promoters (histone H3, H3K9 and H3K4 methylation); experiment: Chromatin immunoprecipitation of viral IE promoters in MAOI-treated infected cells; assay type: cell-based; conditions: for nucleosomes bearing repressive marks on the viral IE promoters (histone H3 and H3K9 methylation): in the presence of drug
# Description: Chromatin immunoprecipitations (ChIP) from extracts of control, HCF-1 depleted, and LSD1 depleted cells were done essentially as described (Narayanan et al., Proc. Natl. Acad. Sci. USA, 2007, 104, 10835-40). Recovered DNA was subjected to semi-quantitative PCR with dilutions of input DNA to insure linearity using PCR Supermix (Invitrogen, Carlsbad, Calif.) with the following conditions: 95° C. for 2 min followed by 20 cycles of 95° C. for 30 sec; 59° C. for 30 sec; 72° C. for 30 sec. The signal intensities of individual bands, resolved in ethidium bromide agarose gels, were calculated as a percentage of the intensity of the input extract after subtraction of the appropriate background antibody controls. Signal intensities of resolved bands were quantitated using a Kodak 4000MM Image Station.
# Samples also were analyzed, in triplicate, by qPCR using ABI Sybr Green PCR Master Mix. For qPCR, samples were run on a ABI PRISM 7900HT with the following conditions: 95° C. for 10 min followed by 40 cycles of 95° C. for 15 sec; 57° C. for 15 sec; 72° C. for 30 sec. Results were analyzed using ABI SDS 2.3 software.
# as §2
# [6] = tested on: varicella zoster virus (VZV); experiment: VZV infection of cells treated with MAOIs; qRT-PCR of IE62 mRNA and IE proteins; assay type: cell-based; conditions: VZV-infected cells, 4 hrs, increasing amounts of drug; relative to DMSO treated cells
# Description: The methods of Example 1 were followed.
# (§3) Cell infections: For HSV, cells were infected with 0.1 plaque forming units (PFU) of HSV per cell for 24 hrs in the presence of 2 mM Tranylcypromine (TCP) or control DMSO. The resulting viral yields were determined by titer of infected cell lysates on Vero cell monolayers. VZV infections were performed as in Example 3.
# [7] = tested on: HSV; conditions: 0.1 PFU HSV per cell, 24 hrs, 2 mM TCP vs DMSO
# Description: as §3
# [8] = tested on: HSV-1 (strain 17); experiment: HSV reactivation: viral yield from explanted trigeminal ganglia of latently infected mice; assay type: cell-based, Balb/c mice
# Description: as §1
# Statistical analyses: Statistical comparisons were made using Wilcoxon signed rank test (paired ganglia) with a statistical significance of <0.05; Kruskal-Wallis test with post hoc Dunn's multiple comparison test (drug titration and reversal) with a statistical significance of <0.025; Mann-Whitney U test with Dunn's post hoc adjustment (non-paired ganglia time course) with a statistical significance of <0.025; or Fischer's Exact Test with a statistical significance of <0.05. Analyses were made using Prism (V5.0a) and are expressed as the mean+/−s.e.m.
# Non-paired ganglia time course statistic analysis: Comparisons were made between control (DMSO) and TCP treated ganglia on day 2 and day 4 post explant. Each comparison utilized a one-sided Mann-Whitney U test followed by application of the Dunn's post hoc adjustment to the p-values. Significant differences were found between DMSO and TCP on day 2 (p=0.0043) and on day 4 (p=0.0011). Both of these differences are still significant after applying the Dunn's adjustment as both are less than the alpha level (α=0.025). The Mann-Whitney tests used an exact p-value for small sample sizes. n=6 for each sample set.
# Paired ganglia statistical analysis: Each data point was the result of a single ganglia divided and treated in the presence and absence of TCP. Therefore, a Wilcoxon signed rank test was used to assess differences between each treated and untreated sample. The significant difference was p=0.0002. This test used an exact p-value for small sample sizes with an α level of 0.05. n=16 for each sample set.
# TCP titration statistical analysis: To determine at what concentration TCP that would produce a significant reduction in viral load, a Kruskal-Wallis (K-W) test with Dunn's post hoc comparison was used. The K-W test was appropriate due to the comparison of five samples of data that are not normally distributed. Significant differences were found between the five groups (p=0.0007, K-W=19.39). […] No significant difference was found between 1.0 and 1.5 or 1.5 and 2.0 mM data sets. n=5 for control, 0.5, 1.0, and 2.0 mM; n=6 for […].
# TCP reversal statistical analysis: Viral yields from ganglia treated without TCP for 2 days, treated with TCP for 2 days, or treated with TCP for 2 days followed by incubation in the absence of drug for 3 days were compared using the K-W test followed by Dunn's post hoc comparisons. The K-W test was appropriate due to the comparison of three samples of data that are not nominally distributed. Significant differences were found between the groups ([…], K-W=10.3).
# [9] = tested on: Adenovirus Type 5; conditions: HeLa cells, 2 mM, 5 hours prior to infection, 2 or 4 hours infection
# Description: Viral infection and treatment with TCP: HeLa cells (2×10^6) were treated with control DMSO (D) or 2 mM Tranylcypromine (T) for 5 hours prior to infection with various amounts of Adenovirus Type 5 (1.2×10^8, 2.3×10^8, and 4.5×10^8 NAS IU) for 2 or 4 hours. Equal amounts of infected cell lysates were resolved by SDS-PAGE and Western blotted with anti-E1A, anti-LSD1, and anti-β tubulin antibodies. HEK293 and uninfected HeLa cell lysates represented E1A positive and negative controls.
# HeLa cells (2×10^6) were treated with control DMSO (D) or various concentrations of Tranylcypromine (TCP) for 5 hours prior to infection with 2.3×10^9 NAS IU of adenovirus Type 5 for 2 hours. Equal amounts of infected cell lysates were resolved by SDS-PAGE and Western blotted with anti-E1A, anti-β Tubulin, and anti-TBP antibodies.
smiles,measurement,setting,value
Nc1nc2c(ncn2COCCO)c(=O)[nH]1 [acyclovir],"odds of viral reactivation, DMSO treated vs acyclovir treated samples (Odds Ratio)",[1]; 48 hours post explant,1.4444 times higher
same,ganglia with ICP8 (+) neurons,[1],9 of 12
same,ICP27 mRNA level,[2],readily detected
C#CCN(C)Cc1ccccc1 [Pargyline],cellular toxicity,[3],no significant cellular toxicity
same,viral mRNA (HSV IE genes) and IE proteins,[4],dose dependent decrease
same,nucleosomes bearing repressive marks on the viral IE promoters (histone H3 and H3K9 methylation),[5],accumulated
same,viral mRNA (IE62) and IE proteins,[6],dose dependent decrease
"N[C@@H]1C[C@H]1c1ccccc1 (racemic) [TCP, Tranylcypromine]","odds of viral reactivation, DMSO treated vs TCP treated samples (Odds Ratio)",[1]; 48 hours post explant,60.6667 times higher
same,"odds of viral reactivation, acyclovir treated vs TCP treated samples (Odds Ratio)",[1]; 48 hours post explant,42.0000 times higher
same,ganglia with ICP8 (+) neurons,[1],1 of 15
same,cellular toxicity,[3]; VZV and HSV infected cells treated with inhibitor,no significant cellular toxicity
same,viral mRNA (HSV IE genes) and IE proteins,[4],dose dependent decrease
same,reduction of viral yields,[7],~1000 fold
same,histone H3 and H3K9 trimethylation on viral IE promoters,[5]; in the presence of TCP,substantial increase
same,level of H3K4 trimethylation on viral IE promoters,[5]; in the presence of TCP,did not significantly change
same,nucleosomes bearing repressive marks on the viral IE promoters (histone H3 and H3K9 methylation),[5],accumulated
same,reduction in viral load vs control (DMSO),"[8]; 0.5 mM TCP, 2 days explant, Dunn's post hoc",did not
same,reduction in viral load vs control (DMSO),"[8]; 1.0 mM TCP, 2 days explant, Dunn's post hoc p<0.05",showed significant differences
same,reduction in viral load vs control (DMSO),"[8]; 1.5 mM TCP, 2 days explant, Dunn's post hoc p<0.05",showed significant differences
same,viral reactivation following drug removal (TCP-R),"[8]; 2 mM TCP 2 days, then 3 days in the absence of drug",high level of viral reactivation; also recorded: HSV reactivation
same,reduction in viral load vs control (DMSO),"[8]; 2.0 mM TCP, 2 days explant, Dunn's post hoc p<0.05",showed significant differences
same,"viral reactivation (viral yield), paired ganglia","[8]; each half of a ganglia explanted with or without 2 mM TCP, 2 days, p=0.0002, n=16",inhibition of viral reactivation; also recorded: decrease in viral yield
same,"reactivation of HSV-1 (viral yield), non-paired ganglia time course","[8]; explant 2 or 4 days, 2 mM TCP vs DMSO, p=0.0043 (day 2), 0.0011 (day 4), n=6",significantly reduced; also recorded: decrease in viral yield
same,HSV reactivation at various (lower) levels of TCP,"[8]; titration of TCP, 2 days explant",lower levels also were effective; also recorded: inhibition of HSV reactivation
same,viral mRNA (IE62) and IE proteins,[6],dose dependent decrease
same,expression of the adenovirus IE protein E1A,[9],inhibits the expression
same,ICP27 mRNA level,[2],not significantly above that of background controls
